Here are results for eleven compounds from patent publication US4145554A, “3-Nitropyrazole derivatives” (Eli Lilly and Company, priority 1977, dated 1979).

≈ marks a conversion by molar mass, not a printed value. Read-outs that look alike come from different tables or passages of the source. Some results are limits rather than exact numbers.

In general, MIC refers to the lowest concentration found to suppress growth. For orientation: ED50 means the dose that gives a 50% effect, or the effect in half of the subjects.

Assay [1] relates to Escherichia coli. Nature of the assay: in vitro tube dilution test (MIC). In kind it is cell-based. To be noted: tube dilution, read-out: MIC. From the text:
(§1) Our compound, 1-(2-hydroxyethyl)-3-nitro-4-pyrazolecarboxamide, has been extensively tested in vitro to determine the range of microorganisms against which it is active. The table of data below reports the minimum inhibitory concentration (MIC) at which the compound is effective in controlling a variety of microorganisms in a standard tube dilution test system. The MIC is reported as micrograms of compound per milliliter.
(§2) Other compounds of our invention have also been tested in the tube dilution test and shown to have in vitro activity against a number of microorganisms. The table below reports tests of a number of exemplary compounds against exemplary microorganisms. The compounds are identified by their numbers in the listing above. The data are reported as the MIC in micrograms per milliliter against the named exemplary microorganisms.

Assay [2] deals with Mycoplasma gallisepticum. The experiment in a line: in vitro tube dilution test (MIC). It is filed as cell-based. To be noted: Mycoplasmoides gallisepticum; Mycoplasma gallisepticum, tube dilution; read-out: MIC.
Excerpt: as §1, §2

Assay [3] has as its system Salmonella dublin. The experiment in a line: in vitro tube dilution test (MIC). Particulars: Salmonella enterica; Salmonella dublin, tube dilution; read-out: MIC. In kind it is cell-based.
Excerpt: (§3) The other preferred compounds of our invention have also been thoroughly tested in the in vitro tube dilution test.
as §2

Assay [4] has as its system Staphylococcus aureus sp. 1130. Nature of the assay: in vitro tube dilution test (MIC). It is filed as cell-based. To be noted: Staphylococcus aureus sp. 1130, tube dilution; read-out: MIC.
Excerpt: as §3, §2

The test system of assay [5] is Vibrio coli 3811. The experiment in a line: in vitro tube dilution test (MIC). In kind it is cell-based. To be noted: Campylobacter coli; Vibrio coli 3811, tube dilution; read-out: MIC.
Excerpt: as §3, §2

Assay [6] deals with Streptococcus sp. 80. The experiment in a line: in vitro tube dilution test (MIC). It is filed as cell-based. Particulars: Streptococcus sp. 80, tube dilution; read-out: MIC.
Excerpt: as §2

Assay [7] relates to H. meleagridis. Nature of the assay: Blackhead in poultry, chicks. In kind it is in vivo. The protocol: One- to three-week-old chicks and turkey poults were obtained from homogeneous source flocks and allocated into treatment groups. Some groups were held as infected, untreated controls, and other groups were treated with 3-nitropyrazoles by administering the compounds in the birds' feed. Various concentrations of the pyrazoles were administered to determine the least concentration which protected the birds. A few days after the administration of medicated feed began, all of the birds were challenged by rectally administering a suspension of at least 5,000 H. meleagridis protozoa per chick. The challenge organisms had been originally obtained from infected chickens, and were grown in vitro to provide a supply of organisms for testing.
The birds were held for about seven days after the challenge was administered, during which time the administration of pyrazole-medicated feed was continued. Then all of the chicks, including the untreated, infected controls, were sacrificed and necropsied. The cecum and the liver of each bird were examined for characteristic H. meleagridis lesions.
For each compound, the lowest feed concentration which gave an active response is indicated. While feed consumption data were not taken during the tests, the birds ate at such a rate that a feed concentration of 0.02 percent is equivalent to a treatment rate of about 10 mg./kg./day.

Assay [8] concerns Salmonella typhimurium. Nature of the assay: Salmonellosis in chickens, single injection to day-old chicks. In kind it is in vivo. To be noted: for chicks protected of the 5-bird treated group: salmonella challenge; for responders at 60 mg/kg: Salmonella enterica, TYPHIMURIUM, 168 h. The protocol: A number of our 3-nitropyrazoles have been tested against an induced infection of Salmonella typhimurium in day-old chicks. The test was conducted by administering a single injection of 60 mg./kg. of the compounds to each of five chicks. The following day, the chicks were challenged by the subcutaneous injection of a dispersion of S. typhimurium organisms sufficient to kill most or all of the untreated control chicks.
Some of the compounds were tested more than once, in which instances the data are reported as the total survivors from the multiple treatment groups. Untreated, challenged control groups of chicks were tested together with each batch of groups of chicks to which test compounds were administered. Since the mortality of the untreated control chicks varied somewhat from one group of tests to another, results of the untreated control groups are reported below with each test.

Assay [9] has as its system Erwinia amylovora. Nature of the assay: Fire blight of pear, in vivo greenhouse test. The protocol:
An in vivo test was conducted against the fire blight organism, Erwinia amylovora. Plants infected with E. amylovora were sprayed with aqueous dispersions containing 100 ppm. and 500 ppm. of the test compounds. […] The compounds are identified below by their compound numbers in the above listing.

Assay [10] deals with Pasteurella multocida. The experiment in a line: in vitro tube dilution test (MIC). Particulars: tube dilution, read-out: MIC. It is filed as cell-based.
Excerpt: as §1, §3, §2

In assay [11] the test system is Streptococcus pyogenes. The experiment in a line: Tests in mice, Streptococcus pyogenes infection. In kind it is in vivo. Particulars: S. pyogenes; for Days Survived: two subcutaneous doses of 83 mg./kg., 1 and 5 hours; for ED50: Streptococcus pyogenes, sc, subcutaneous, 1 and 5 hours post-inoculation. The protocol:
(§4) Groups of laboratory mice were inoculatd with E. coli or with Streptococcus pyogenes. The 3-nitropyrazoles were administered in two different modes to the infected mice. In one group of tests, the compound was administered in two subcutaneous doses of 83 mg./kg. each, given 1 and 5 hours after the mice were inoculated with the organism. The mice were observed, and the results reported below as the number of days the treated mice survived the challenge.
(§5) In the other group of tests, the dose of each compound which allowed 50 percent of the treated mice to survive the challenge was determined. Again, the compound was administered in subcutane divided doses, 1 and 5 hours post-inoculation.

In assay [12] the test system is E. coli. The experiment in a line: Tests in mice, E. coli infection. It is filed as in vivo. To be noted: for Days Survived: two subcutaneous doses of 83 mg./kg., 1 and 5 hours. How it is done: as §4, §5
The mark [13] stands for this setting: single injection of 60 mg./kg., seven days, read-out: Survival (converted).

As to `CNc1nnc(-c2cn(C)nc2[N+](=O)[O-])s1` [Compound 2, 2-(1-methyl-3-nitro-4-pyrazolyl)-5-methylamino-1,3,4-thiadiazole], the MIC in [1] is 50 µg/mL (≈ 208 µM); in assay [2], 6.25 µg/mL (≈ 26 µM); in [3], 50 µg/mL (≈ 208 µM); in assay [4], 50 µg/mL (≈ 208 µM); in assay [5], 25 µg/mL (≈ 104 µM); in assay [6], 50 µg/mL (≈ 208 µM). Further, the “Active Level (lowest feed concentration which gave an active response)” value (“Active Level” below) in assay [7] is given as “.02%”. In addition, in assay [8], the “chicks protected of the 5-bird treated group” value was “at least three chicks of the 5-bird treated group”.

As to `Cn1cc(C(N)=O)c([N+](=O)[O-])n1` [Compound 3, 1-methyl-3-nitro-4-pyrazolecarboxamide], the MIC in assay [1] is 12.5 µg/mL (≈ 73.5 µM); in assay [2], 50 µg/mL (≈ 294 µM); in assay [3], 6.25 µg/mL (≈ 36.7 µM); in assay [4], 12.5 µg/mL (≈ 73.5 µM); in [5], 6.25 µg/mL (≈ 36.7 µM); in assay [6] it was 100 µg/mL (≈ 588 µM). Moreover, the “Percent Control of fire blight” value in assay [9] (100 ppm.) is 25%; in assay [9] (500 ppm.) it was 75%. Also, in assay [7], the “Active Level” value is reported as “.02%”.

Consider `CCS(=O)(=O)CCn1cc(C(N)=O)c([N+](=O)[O-])n1` [Compound 35, 1-(2-ethylsulfonylethyl)-3-nitro-4-pyrazolecarboxamide], for which the MIC in assay [1] is 50 µg/mL (≈ 181 µM); in assay [2], > 50 µg/mL; in assay [10], 6.25 µg/mL (≈ 22.6 µM); in assay [3], 50 µg/mL (≈ 181 µM); in [4] it was 3.12 µg/mL (≈ 11.3 µM); in assay [5] it was 50 µg/mL (≈ 181 µM). Moreover, the MIC in assay [6] came out at 25 µg/mL (≈ 90.5 µM). Moreover, the entries for the “Days Survived” value in [11] and in [12] were 7.0 days and 1.0 days, respectively. The compound further returned a median effective dose (ED50) in [11] of 36.2 mg/kg. Moreover, the responders at 60 mg/kg in assay [8] (setting [13]) is 80%.

As to `CNC(=O)c1cn(C)nc1[N+](=O)[O-]` [Compound 61, N,1-dimethyl-3-nitro-4-pyrazolecarboxamide], the MIC in assay [1] came to 50 µg/mL (≈ 272 µM); in assay [2], 12.5 µg/mL (≈ 67.9 µM); in assay [3], 50 µg/mL (≈ 272 µM); in assay [4] it was 50 µg/mL (≈ 272 µM); in assay [6], 50 µg/mL (≈ 272 µM). For the same compound, the “Days Survived” value in assay [11] worked out at 1.0 days. Also, the ED50 in assay [11] is > 83 mg/kg; in assay [12] (Escherichia coli, sc, subcutaneous, 1 and 5 hours post-inoculation), 68 mg/kg. Further, the responders at 60 mg/kg in assay [8] (setting [13]) is 70%.

Regarding `COCCn1cc(C(N)=O)c([N+](=O)[O-])n1` [Compound 65, 1-(2-methoxyethyl)-3-nitro-4-pyrazolecarboxamide], the MIC in assay [1] was 12.5 µg/mL (≈ 58.4 µM); in assay [2], 50 µg/mL (≈ 233 µM); in assay [10], 50 µg/mL (≈ 233 µM); in assay [3], 12.5 µg/mL (≈ 58.4 µM); in assay [4], 50 µg/mL (≈ 233 µM); in [5], 50 µg/mL (≈ 233 µM). The MIC in [6] was > 50 µg/mL. Moreover, in assay [7], the “Active Level” value was “.02%”. Further, in [8] (setting [13]), the responders at 60 mg/kg was 70%.

Regarding `CCOCCn1cc(C#N)c([N+](=O)[O-])n1` [Compound 84, 1-(2-ethoxyethyl)-3-nitro-4-pyrazolecarbonitrile], the MIC amounted to 50 µg/mL (≈ 238 µM) in [1]; 50 µg/mL (≈ 238 µM) in assay [2]; 25 µg/mL (≈ 119 µM) in [10]; 50 µg/mL (≈ 238 µM) in assay [3]; 50 µg/mL (≈ 238 µM) in [4]; 25 µg/mL (≈ 119 µM) in [5]. Also, the MIC in assay [6] amounted to 50 µg/mL (≈ 238 µM). In addition, the responders at 60 mg/kg in assay [8] (setting [13]) is 80%.

For the compound `CCCCNC(=O)c1cn(CCO)nc1[N+](=O)[O-]` [Compound 85, N-butyl-1-(2-hydroxyethyl)-3-nitro-4-pyrazolecarboxamide], the minimum inhibitory concentration (MIC) is > 50 µg/mL in assay [1]; 3.12 µg/mL (≈ 12.2 µM) in [2]; > 50 µg/mL in assay [10]; > 50 µg/mL in assay [3]; > 50 µg/mL in assay [4]; 50 µg/mL (≈ 195 µM) in assay [5]. Further, the MIC in [6] is > 50 µg/mL. Besides, the “chicks protected of the 5-bird treated group” value in assay [8] is reported as “at least three chicks of the 5-bird treated group”.

As to `CC(C)NC(=O)c1cn(CCO)nc1[N+](=O)[O-]` [Compound 88, 1-(2-hydroxyethyl)-N-isopropyl-3-nitro-4-pyrazolecarboxamide], the MIC was 50 µg/mL (≈ 206 µM) in assay [1]; 3.12 µg/mL (≈ 12.9 µM) in assay [2]; 6.25 µg/mL (≈ 25.8 µM) in [10]; > 50 µg/mL in assay [3]; > 50 µg/mL in assay [4]; 50 µg/mL (≈ 206 µM) in [5]. Further, the MIC in assay [6] was > 50 µg/mL. Also, the entries for the “Days Survived” value in [11] and in [12] were 2.0 days and 4.8 days, respectively.

With `NC(=O)c1cn(CC2CC2)nc1[N+](=O)[O-]` [Compound 90, 1-cyclopropylmethyl-3-nitro-4-pyrazolecarboxamide], the MIC in assay [1] is 50 µg/mL (≈ 238 µM); in assay [2], > 50 µg/mL; in assay [10], 25 µg/mL (≈ 119 µM); in assay [3] it was 50 µg/mL (≈ 238 µM); in [4], 50 µg/mL (≈ 238 µM); in [5] it was 50 µg/mL (≈ 238 µM). For the same compound, the MIC in assay [6] is > 50 µg/mL. Moreover, the “Active Level” value in [7] is given as “.02%”. In addition, the responders at 60 mg/kg in [8] (setting [13]) was 80%.

Consider `NC(=O)OCCn1cc(C(N)=O)c([N+](=O)[O-])n1` [Compound 93, [2-(4-carbamoyl-3-nitropyrazol-1-yl)ethyl] carbamate], for which the MIC in assay [1] was 12.5 µg/mL (≈ 51.4 µM); in [2], 12.5 µg/mL (≈ 51.4 µM); in assay [10], < 1.56 µg/mL; in assay [3], 6.25 µg/mL (≈ 25.7 µM); in [4], 3.12 µg/mL (≈ 12.8 µM); in [5], 50 µg/mL (≈ 206 µM). In addition, in [6], the MIC was 6.25 µg/mL (≈ 25.7 µM). In addition, in assay [8] (read-out: Survival), the responders at 60 mg/kg was 100%.

For `NC(=O)c1cn(CCBr)nc1[N+](=O)[O-]` [Compound 96, 1-(2-bromoethyl)-3-nitropyrazole-4-carboxamide], the MIC in [1] was 6.25 µg/mL (≈ 23.8 µM); in assay [2] it was 25 µg/mL (≈ 95 µM); in assay [10], 12.5 µg/mL (≈ 47.5 µM); in [3] it was 3.12 µg/mL (≈ 11.9 µM); in [4], < 1.56 µg/mL; in assay [5], 25 µg/mL (≈ 95 µM). Moreover, the MIC in [6] was > 50 µg/mL. Moreover, in assay [8] (setting [13]), the responders at 60 mg/kg is 100%.
